US11964938B2, “3-phenyl-4-hexynoic acid derivatives as GPR40 agonists” (CELON PHARMA S.A., priority 2018, dated 2024)

Columns and labels:
human GPR40 receptor = biological target: T1, human GPR40 receptor (Homo sapiens, UniProt O14842); assay: Analysis of receptor activation - calcium ions concentration measurement (aequorin luminescence); type: cell-based; conditions: enhancement or decrease of activity in relation to reference TAK-875, from EC50 values
T1 construct: host or cells: CHO-K1 (co-expressing aequorin)
Excerpt: Experiment B1: Analysis of Receptor Activation—Calcium Ions Concentration Measurement.
As a result of the measurement, luminescence change in the time curve were obtained, the integration of which allowed to calculate the relative amount of calcium ions released to cytosol. […] Curves plotted from obtained results allowed to determine EC50 values.

[1] = test system: Wistar HAN Crl:WI (HAN) rats; assay: Glucose tolerance test in vivo on rats; parameters: species or system rat; conditions: 10 mg/kg oral single dose, blood; for AUC for glucose (0-540 min.): i.p. glucose bolus at t=0 and 6 h; for AUC for insulin (0-180 min.): i.p. glucose bolus
Method: Experiment B3: Glucose Tolerance Test In Vivo on Rats.
To evaluate glucose lowering effect of the compounds in in vivo study, glucose tolerance test (GTT) was performed. The study was performed on male outbred Wistar HAN Crl:WI (HAN) rats from Charles River, weight about 250-300 g, 8-10 weeks old. Rats were starved for 12 hours (with free access to water).
At time point t=0 animals were given orally a single dose of a compound (by a gastric tube) and immediately (t=0) and after 6 hour (t=6 h) intraperitoneal (i.p.) glucose bolus ([…]). At time points t=0 (just before oral administration of the compounds and intraperitoneal glucose administration), 0.25, 0.5, 1, 2, 2.5, 3, 6, 6.25, 7, 8, and 9 h blood samples from tail vein were collected from each animal for glucose level determination using Accu-chek glucometer (Roche Diagnostics) and additionally at t=0.25, 0.5, 1, 2, 2.5, and 3 h blood samples from tail vein were collected for insulin level measurement using ELISA test (Mercodia).
Tested compound were prepared in 5% DMSO/40% PEG300/55% PBS vehicle and administered at the dose of 10 mg/kg body weight in a volume of 0.5 ml/100 g body weight. After 4 hours after tested compound administration animals were given standard diet to the cages. Decrease of AUC value for glucose level in blood was calculated and the results for selected compounds of the invention are presented in Table 5. Analysis was performed using GraphPad prism software.

[2] = test system: MIN6 (mouse insulinoma) cells; assay: Glucose-dependent insulin release in mouse insulinoma cells (MIN6); type: cell-based; conditions: multiplicity of insulin efflux increase in relation to control; 10 uM compound, 20 mM glucose, 1 hour
Method: Experiment B2: Glucose-Dependent Insulin Release in Mouse Insulinoma Cells (MIN6).
MIN6 (mouse insulinoma) cells were seeded on a plate covered with PDL (poly-D-lysine) at 5×10^5/well and cultured for 48 hours. […] Tested compounds, after dilution to the concentration of 10-40 uM in KRBH buffer with the addition of 20 mM glucose, were added to the cells and incubated for 1 hour to induce insulin release. Negative control was KRBH buffer with the addition of 2 mM glucose. Concentration of released insulin was determined using ELISA test (Mercodia).
Table 4 present MIN6Insulin @10 uM values for representative compounds of the invention. MIN6Insulin @10 uM value is a multiplicity of insulin efflux increase in relation to control experiment, following addition of 10 uM of tested compound.

[3] = test system: diabetes STZ-treated mice; assay: Von Frey test on diabetes STZ-treated mice (tactile allodynia); type: in vivo, mouse; conditions: 60 minutes after administration, mean of group
Method: Experiment B5: Von Frey Test on Diabetes STZ-Treated Mice.
Tactile allodynia was assessed by electronic von Frey apparatus (Bioseb) equipped with a flexible filament. Reaction to stimuli was assessed using growing applied pressure (from 0 to 10 g) on a plantar side of the hind foot of mice. Pregabalin was a control, as reference healthy mice with preserved normal response to the stimuli were used. In the day of the experiment, mice were placed separately in cages with a wire mesh bottom for 1 h for habituation to experimental conditions. After habituation period, each mouse was treated 3 times alternately, with 30 s intervals between each measurement, to obtain starting values (before administration of the compound) of pain sensitivity. […] The results are presented in Table 7 as mean value for all mice in a given group (n=7-10).

[4] = I phase of clinical trials; cited from earlier work

T1 sequence (O14842 whole entry): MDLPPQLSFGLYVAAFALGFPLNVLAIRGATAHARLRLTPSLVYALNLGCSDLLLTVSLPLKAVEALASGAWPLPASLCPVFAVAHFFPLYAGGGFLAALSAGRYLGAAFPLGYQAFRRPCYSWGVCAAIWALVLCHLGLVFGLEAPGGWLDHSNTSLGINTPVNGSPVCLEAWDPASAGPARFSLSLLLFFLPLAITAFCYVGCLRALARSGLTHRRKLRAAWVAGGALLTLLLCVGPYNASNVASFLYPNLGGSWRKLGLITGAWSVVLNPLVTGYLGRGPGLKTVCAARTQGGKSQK

Row | Structure (SMILES) | % PTAK-875 (human GPR40 receptor) | also measured
1 | CC#CC(CC(=O)O)c1ccc(OCC(C)(C)C)cc1 (racemic) [Example F26, (3R/S)-3-[4-(2,2-dimethylpropoxy)phenyl]hex-4-ynoic acid] | E (<20% PTAK-875) | 
2 | CC#C[C@@H](CC(=O)O)c1ccc(OCC#CCC)cc1 [Example F22, (3S)-3-[4-(pent-2-yn-1-yloxy)phenyl]hex-4-ynoic acid] | C (51-80% PTAK-875) | 
3 | CC#C[C@@H](CC(=O)O)c1ccc(OCCCCCC)cc1 [Example F4, (3S)-3-[4-(hexyloxy)phenyl]hex-4-ynoic acid] | A (>120% PTAK-875) | 
4 | CC#CCCOc1ccc([C@@H](C#CC)CC(=O)O)cc1 [Example F21, (3S)-3-[4-(pent-3-yn-1-yloxy)phenyl]hex-4-ynoic acid] | C (51-80% PTAK-875) | 
5 | C=CCCCOc1ccc([C@@H](C#CC)CC(=O)O)cc1 [Example F20, (3S)-3-[4-(pent-4-en-1-yloxy)phenyl]hex-4-ynoic acid] | B (81-120% PTAK-875) | 
6 | CC#C[C@@H](CC(=O)O)c1ccc(OCCC(C)C)cc1 [Example F24, (3S)-3-[4-(3-methylbutoxy)phenyl]hex-4-ynoic acid] |  | melting point: 26.4 to 27.1 °C; AUC for glucose (0-540 min.) [1]: 24289.7; AUC for insulin (0-180 min.) [1]: 329.0; MIN6Insulin @10 uM [2]: 2.627
7 | C=C(C)/C=C/COc1ccc([C@@H](C#CC)CC(=O)O)cc1 [Example F34, (3S)-3-(4-{[(2E)-4-methylpenta-2,4-dien-1-yl]oxy}phenyl)hex-4-ynoic acid] | A (>120% PTAK-875) | melting point: 94.7 to 95.7 °C
8 | CC(C)C[C@H](CN)CC(=O)O [Pregabalin, reference compound] |  | Applied pressure causing the response, sick animal (neuropathic) after compound administration ([3]; 3 mg/kg p.o.): 2.04 g; Applied pressure causing the response, sick animal (neuropathic) after compound administration ([3]; 10 mg/kg p.o.): 2.65 g; Applied pressure causing the response, sick animal (neuropathic) after compound administration ([3]; 30 mg/kg p.o.): 4.11 g
9 | CC#C[C@@H](CC(=O)O)c1ccc(OCCC(C)CC)cc1 (mixture of isomers) [Example F38, (3S)-3-(4-{[(3R/S)-3-methylpentyl]oxy}phenyl)hex-4-ynoic acid] | B (81-120% PTAK-875) | 
10 | CC#CC(CC(=O)O)c1ccc(OC/C=C(\C)CC/C=C(\C)CCC=C(C)C)cc1 (racemic) [Example F11, (3R/S)-3-(4-{[(2E,6E)-3,7,11-trimethyldodeca-2,6,10-trien-1-yl]oxy}-phenyl)hex-4-ynoic acid] | D (21-50% PTAK-875) | 
11 | CC#C[C@@H](CC(=O)O)c1ccc(OC/C=C/CCC)cc1 [Example F18, (3S)-3-{4-[(2E)-hex-2-en-1-yloxy]phenyl}hex-4-ynoic acid] | A (>120% PTAK-875) | 
12 | CC#C[C@@H](CC(=O)O)c1ccc(OCc2cccc(-c3ccc(C(F)(F)F)cc3)c2)cc1 [Example R2, (3S)-3-[4-({3-[4-(trifluoromethyl)phenyl]phenyl}methoxy)phenyl]-hex-4-ynoic acid, reference compound] |  | insulin plasma level [4]: enhanced insulin plasma level; MIN6Insulin @10 uM [2]: 1.567
13 | CC#C[C@@H](CC(=O)O)c1ccc(OCC(C)=C(C)C)cc1 [Example F33, (3S)-3-{4-[(2,3-dimethylbut-2-en-1-yl)oxy]phenyl}hex-4-ynoic acid] |  | AUC for glucose (0-540 min.) [1]: 19393.1; AUC for insulin (0-180 min.) [1]: 519.1; MIN6Insulin @10 uM [2]: 3.895
14 | CC#C[C@@H](CC(=O)O)c1ccc(OCCCC)cc1 [Example F2, (3S)-3-(4-butoxyphenyl)hex-4-ynoic acid] | A (>120% PTAK-875) | 
15 | CC#C[C@@H](CC(=O)O)c1ccc(OC(C)C(C)C)cc1 (mixture of isomers) [Example F13, (3S)-3-(4-{[(2R/S)-3-methylbutan-2-yl]oxy}phenyl)hex-4-ynoic acid] | A (>120% PTAK-875) | 
16 | CC#C[C@@H](CC(=O)O)c1ccc(OCCCCCCC)cc1 [Example F5, (3S)-3-[4-(heptyloxy)phenyl]hex-4-ynoic acid] | A (>120% PTAK-875) | 
17 | CC#C[C@@H](CC(=O)O)c1ccc(OCCC)cc1 [Example F1, (3S)-3-(4-propoxyphenyl)hex-4-ynoic acid] | D (21-50% PTAK-875) | 
18 | CC#C[C@@H](CC(=O)O)c1ccc(OC(CC)CC)cc1 [Example F17, (3S)-3-[4-(pentan-3-yloxy)phenyl]hex-4-ynoic acid] | E (<20% PTAK-875) | 
19 | CC#C[C@@H](CC(=O)O)c1ccc(OCCCC(F)(F)F)cc1 [Example F39, (3S)-3-[4-(4,4,4-trifluorobutoxy)phenyl]hex-4-ynoic acid] | B (81-120% PTAK-875) | 
20 | CC#C[C@@H](CC(=O)O)c1ccc(OC/C=C/C=C/C)cc1 [Example F19, (3S)-3-{4-[(2E,4E)-hexa-2,4-dien-1-yloxy]phenyl}hex-4-ynoic acid] | A (>120% PTAK-875) | 
21 | CC#C[C@@H](CC(=O)O)c1ccc(OCC=C(C)C)cc1 [Example F28, (3S)-3-{4[(3-methylbut-2-en-1-yl)oxy]phenyl}hex-4-ynoic acid] |  | melting point: 52.1 to 53.1 °C; AUC for glucose (0-540 min.) [1]: 28377.4; AUC for insulin (0-180 min.) [1]: 499.2; MIN6Insulin @10 uM [2]: 2.782
22 | CC#C[C@@H](CC(=O)O)c1ccc(OCC(C)C(C)C)cc1 (mixture of isomers) [Example F37, (3S)-3-{4-[(2R/S)-2,3-dimethylbutoxy]phenyl}hex-4-ynoic acid] | A (>120% PTAK-875) | 
23 | CC#C[C@@H](CC(=O)O)c1ccc(OC/C=C(\C)CCC=C(C)C)cc1 [Example F6, (3S)-3-(4-{[(2E)-3,7-dimethylocta-2,6-dien-1-yl]oxy}phenyl)hex-4-ynoic acid] |  | AUC for glucose (0-540 min.) [1]: 25184.1; AUC for insulin (0-180 min.) [1]: 492.5
24 | CC#C[C@@H](CC(=O)O)c1ccc(OCCCCC(F)(F)F)cc1 [Example F40, (3S)-3-{4[(5,5,5-trifluoropentyl)oxy]phenyl}hex-4-ynoic acid] | B (81-120% PTAK-875) | 
25 | C=C(C)CCOc1ccc([C@@H](C#CC)CC(=O)O)cc1 [Example F30, (3S)-3-{4[(3-methylbut-3-en-1-yl)oxy]phenyl}hex-4-ynoic acid] | A (>120% PTAK-875) | 
26 | CC#C[C@@H](CC(=O)O)c1ccc(OCCC(C)(C)C)cc1 [Example F27, (3S)-3-[4-(3,3-dimethylbutoxy)phenyl]hex-4-ynoic acid] | D (21-50% PTAK-875) | 
